From ChEMBL document CHEMBL1156111, “Identification of the amino acid-AZT-phosphoramidase by affinity T7 phage display selection” (Bioorg Med Chem Lett, 2009) come the findings set out here.

The assay deals with Adenosine 5'-monophosphoramidase HINT1 (Homo sapiens) (UniProt P49773). In words: Ratio of kcat to km for human HINT1.
Adenosine 5'-monophosphoramidase HINT1 (Homo sapiens), sequence (P49773 whole entry): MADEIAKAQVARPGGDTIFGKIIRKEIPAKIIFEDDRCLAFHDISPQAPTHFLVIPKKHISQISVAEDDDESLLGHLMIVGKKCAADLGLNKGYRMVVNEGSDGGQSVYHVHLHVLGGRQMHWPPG

Take `Cc1cn([C@H]2C[C@H](N=[N+]=[N-])[C@@H](COP(=O)(O)NCc3c[nH]c4ccccc34)O2)c(=O)[nH]c1=O`: the Ratio turned out to be 25.
